Laboratory results taken from patent US7186803B2, “Human vanilloid receptor VR3 protein” (Ortho-McNeil Pharmaceutical, Inc., priority 2000, dated 2007).
Entries after “also recorded” stand apart in the source; their conditions may differ.

What was measured:
human VR3 A−B− = target: T1, human VR3 A−B− (Homo sapiens, UniProt Q9HBA0, DEL384-443/F526I); experiment: Two-electrode voltage clamp of Xenopus oocytes injected with VR3 A−B− cRNA, challenged with ligands; format: cell-based; details: VR3 A−B− 1.5 ng injected per oocyte
T1 construct: expressed in transfected cells; host or cells: Xenopus laevis oocytes injected with in vitro transcribed cRNA
Description: When approximately 50% of the follicular layers were removed, Stage V and VI oocytes were selected and rinsed in media consisting of 75% OR-2 and 25% ND-96. The ND-96 contained: 100 mM NaCl, 2 mM KCl, 1 mM MgCl2, 1.8 mM CaCl2, 5 mM HEPES, 2.5 mM Na pyruvate, gentamicin (50 ug/ml), adjusted to pH 7.0 with NaOH.
(§1) Oocytes were injected with 50 nl of the human VR3 receptor RNA (0.3–5 ng) with or without co-injection of VR1 (2–3 ng). Control oocytes were injected with 50 nl of water. Oocytes were incubated for 1–13 days in ND-96 before analysis for expression of the human VR3. Incubations and collagenase digestion were carried out at room temperature. Injected oocytes were maintained in 48 well cell culture clusters (Costar; Cambridge, Mass.) at 18° C. […] The microelectrodes were filled with 3 M KCl, which had resistances of 1 and 2 MΩ. Cells were continuously perfused with ND96 at ˜10 ml/min at room temperature unless indicated. Membrane voltage was clamped at −70 mV unless indicated.

human VR3 A+B− = target: T2, human VR3 A+B− (Homo sapiens, UniProt Q9HBA0, F526I); experiment: Two-electrode voltage clamp of Xenopus oocytes injected with VR3 A+B− cRNA, challenged with ligands; format: cell-based; set-up: key: NE: no effect
T2 construct: expressed in transfected cells; host or cells: Xenopus laevis oocytes injected with in vitro transcribed cRNA
Description: (§2) Xenopus laevis oocytes were prepared and injected using standard methods previously described and known in the art (Fraser et al., 1993). Ovarian lobes from adult female Xenopus laevis (Nasco, Fort Atkinson, Wis.) were teased apart, rinsed several times in nominally Ca-free saline containing: 82.5 mM NaCl, 2.5 mM KCl, 1 mM MgCl2, 5 mM HEPES, adjusted to pH 7.0 with NaOH (OR-2), and gently shaken in OR-2 containing 0.2% collagenase Type 1 (ICN Biomedicals, Aurora, Ohio) for 2–5 hours. When approximately 50% of the follicular layers were removed, Stage V and VI oocytes were selected and rinsed in media consisting of 75% OR-2 and 25% ND-96. The ND-96 contained: 100 mM NaCl, 2 mM KCl, 1 mM MgCl2, 1.8 mM CaCl2, 5 mM HEPES, 2.5 mM Na pyruvate, gentamicin (50 ug/ml), adjusted to pH 7.0 with NaOH. […] For in vitro transcription, pGEM HE (Liman et al., 1992) containing human VR3 was linearized with NheI and transcribed with T7 RNA polymerase (Promega) in the presence of the cap analog m7G(5′)ppp(5′)G. The synthesized cRNA was precipitated with ammonium acetate and isopropanol, and resuspended in 50 μl nuclease-free water. cRNA was quantified using formaldehyde gels (1% agarose, 1×MOPS , 3% formaldehyde) against 1,2 and 5 μl RNA markers (Gibco BRL, 0.24–9.5 Kb).
(§3) Oocytes were injected with 50 nl of the human VR3 receptor RNA (0.3–5 ng) with or without co-injection of VR1 (2–3 ng). Control oocytes were injected with 50 nl of water. Oocytes were incubated for 1–13 days in ND-96 before analysis for expression of the human VR3. Incubations and collagenase digestion were carried out at room temperature. Injected oocytes were maintained in 48 well cell culture clusters (Costar; Cambridge, Mass.) at 18° C. Whole cell agonist-induced currents were measured 1–14 days after injection with a conventional two-electrode voltage clamp (GeneClamp500, Axon Instruments, Foster City, Calif.) using standard methods previously described and known in the art (Dascal, 1987). The microelectrodes were filled with 3 M KCl, which had resistances of 1 and 2 MΩ. Cells were continuously perfused with ND96 at ˜10 ml/min at room temperature unless indicated. Membrane voltage was clamped at −70 mV unless indicated.
(§4) Oocytes were challenged with a variety of ligands, low pH, and depolarizing as well as hyperpolarizing voltage steps but there were no detectable differences in membrane conductance between human VR3-expressing oocytes and control oocytes [see Table 1]. However, human VR3 injected oocytes had properties that were different from controls in 4 respects. First, injection of VR3 A+B− cRNA caused oocytes to die. […] Second, all three isoforms of VR3 enhanced the heat-induced response (FIG. 10). Third, A+B− co-injection with human VR1 produced a ruthenium red sensitive perfusion-induced current (Iperfusion) (FIG. 11).

human VR3 A+B+ = target: T3, human VR3 A+B+ (Homo sapiens, UniProt Q9HBA0); experiment: Two-electrode voltage clamp of Xenopus oocytes injected with VR3 A+B+ cRNA, challenged with ligands; format: cell-based; set-up: key: NE: no effect; details: VR3 A+B+ 5 ng injected per oocyte
T3 construct: expressed in transfected cells; host or cells: Xenopus laevis oocytes injected with in vitro transcribed cRNA
Description: as §2, §3, §4

VR2 = target: T4, VR2 (Rattus norvegicus, UniProt Q9WUD2); details: noxious temperatures (>53 deg C.), oocytes and HEK cells, cited from earlier work
T4 construct: host or cells: oocytes and HEK cells (as reported)
T4 sequence (Q9WUD2 1-761): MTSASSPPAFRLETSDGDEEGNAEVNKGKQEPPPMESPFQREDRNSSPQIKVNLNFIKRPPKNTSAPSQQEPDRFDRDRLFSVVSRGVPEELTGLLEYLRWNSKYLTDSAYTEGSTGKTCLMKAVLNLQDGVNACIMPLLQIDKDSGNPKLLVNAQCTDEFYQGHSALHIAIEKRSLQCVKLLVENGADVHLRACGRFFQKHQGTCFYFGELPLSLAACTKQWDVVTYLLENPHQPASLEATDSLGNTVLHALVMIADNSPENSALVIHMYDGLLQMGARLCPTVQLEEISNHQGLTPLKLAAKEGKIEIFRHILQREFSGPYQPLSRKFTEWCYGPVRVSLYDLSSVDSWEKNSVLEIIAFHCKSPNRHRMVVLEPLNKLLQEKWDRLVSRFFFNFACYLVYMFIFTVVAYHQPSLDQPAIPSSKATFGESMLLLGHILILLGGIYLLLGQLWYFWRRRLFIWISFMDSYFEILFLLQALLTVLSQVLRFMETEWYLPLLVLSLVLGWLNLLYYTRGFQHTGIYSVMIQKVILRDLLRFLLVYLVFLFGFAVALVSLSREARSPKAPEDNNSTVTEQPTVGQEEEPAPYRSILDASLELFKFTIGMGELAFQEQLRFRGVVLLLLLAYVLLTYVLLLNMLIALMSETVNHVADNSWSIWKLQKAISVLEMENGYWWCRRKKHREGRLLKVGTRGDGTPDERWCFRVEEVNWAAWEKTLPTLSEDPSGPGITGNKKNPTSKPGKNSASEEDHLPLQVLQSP

[1] = target: T5, human VR1 together with human VR3 A+B− (Homo sapiens, UniProt Q8NER1); experiment: Capsaicin induced currents in oocytes expressing human VR1 with human VR3 A+B−; format: cell-based; details: 1 uM capsaicin; VR1 and VR3 A+B− cRNA at equal ratios (2.9 ng each); holding voltage +50 mV
T5 construct: expressed in transfected cells; host or cells: Xenopus laevis oocytes co-injected with VR1 and VR3 A+B− cRNA (2.9 ng each)
Description: as §1

capsaicin binding site = capsaicin binding site (Rattus norvegicus, UniProt O35433); details: cited from earlier work
[2] = 10 uM, VR3 A+B− 3.25–4 ng injected per oocyte (also 0.4 ng)
[3] = 100 uM, VR3 A+B− 3.25–4 ng injected per oocyte
[4] = 1 uM, VR3 A+B− 3.25–4 ng injected per oocyte (also 0.4 ng)

T3 sequence (Q9HBA0 with tags, fused parts or gaps): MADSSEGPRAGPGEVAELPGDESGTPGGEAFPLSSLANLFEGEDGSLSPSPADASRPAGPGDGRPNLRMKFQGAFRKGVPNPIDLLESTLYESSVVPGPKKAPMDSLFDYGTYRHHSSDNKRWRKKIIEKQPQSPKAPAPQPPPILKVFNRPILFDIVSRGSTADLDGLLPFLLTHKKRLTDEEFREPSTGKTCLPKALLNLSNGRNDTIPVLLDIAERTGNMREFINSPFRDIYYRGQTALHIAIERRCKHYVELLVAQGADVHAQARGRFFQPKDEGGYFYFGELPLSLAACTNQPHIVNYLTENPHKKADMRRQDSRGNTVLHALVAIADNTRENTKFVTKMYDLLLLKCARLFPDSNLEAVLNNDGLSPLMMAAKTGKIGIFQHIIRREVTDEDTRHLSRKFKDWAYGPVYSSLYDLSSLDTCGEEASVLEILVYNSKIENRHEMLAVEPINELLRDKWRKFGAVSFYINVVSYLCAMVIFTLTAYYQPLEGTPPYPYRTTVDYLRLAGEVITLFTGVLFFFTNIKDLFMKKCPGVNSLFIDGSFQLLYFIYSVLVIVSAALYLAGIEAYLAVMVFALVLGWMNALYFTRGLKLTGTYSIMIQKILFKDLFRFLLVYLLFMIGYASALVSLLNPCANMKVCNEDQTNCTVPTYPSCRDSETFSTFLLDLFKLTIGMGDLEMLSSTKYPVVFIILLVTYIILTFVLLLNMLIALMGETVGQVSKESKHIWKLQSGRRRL
T1 sequence (Q9HBA0 with tags, fused parts or gaps DEL384-443/F526I): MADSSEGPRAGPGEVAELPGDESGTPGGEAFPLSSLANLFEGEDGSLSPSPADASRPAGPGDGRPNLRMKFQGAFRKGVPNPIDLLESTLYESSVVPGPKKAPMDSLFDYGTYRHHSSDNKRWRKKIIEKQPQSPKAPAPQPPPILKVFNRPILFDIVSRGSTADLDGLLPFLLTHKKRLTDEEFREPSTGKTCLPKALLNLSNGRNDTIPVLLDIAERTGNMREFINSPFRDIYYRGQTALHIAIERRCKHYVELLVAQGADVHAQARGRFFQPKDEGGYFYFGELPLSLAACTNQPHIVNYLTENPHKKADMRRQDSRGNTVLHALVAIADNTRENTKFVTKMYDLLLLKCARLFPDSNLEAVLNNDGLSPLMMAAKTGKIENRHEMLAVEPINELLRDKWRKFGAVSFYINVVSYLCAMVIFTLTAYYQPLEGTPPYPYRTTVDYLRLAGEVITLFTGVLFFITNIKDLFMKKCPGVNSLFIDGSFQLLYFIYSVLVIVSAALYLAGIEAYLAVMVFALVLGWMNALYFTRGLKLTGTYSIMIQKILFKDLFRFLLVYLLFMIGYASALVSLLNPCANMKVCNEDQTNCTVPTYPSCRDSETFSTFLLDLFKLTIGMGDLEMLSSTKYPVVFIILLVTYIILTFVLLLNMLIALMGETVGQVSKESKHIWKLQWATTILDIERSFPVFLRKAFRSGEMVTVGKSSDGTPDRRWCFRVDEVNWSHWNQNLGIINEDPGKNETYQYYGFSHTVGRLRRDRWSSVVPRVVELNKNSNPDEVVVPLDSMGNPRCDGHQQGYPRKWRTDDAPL
T2 sequence (Q9HBA0 whole entry F526I): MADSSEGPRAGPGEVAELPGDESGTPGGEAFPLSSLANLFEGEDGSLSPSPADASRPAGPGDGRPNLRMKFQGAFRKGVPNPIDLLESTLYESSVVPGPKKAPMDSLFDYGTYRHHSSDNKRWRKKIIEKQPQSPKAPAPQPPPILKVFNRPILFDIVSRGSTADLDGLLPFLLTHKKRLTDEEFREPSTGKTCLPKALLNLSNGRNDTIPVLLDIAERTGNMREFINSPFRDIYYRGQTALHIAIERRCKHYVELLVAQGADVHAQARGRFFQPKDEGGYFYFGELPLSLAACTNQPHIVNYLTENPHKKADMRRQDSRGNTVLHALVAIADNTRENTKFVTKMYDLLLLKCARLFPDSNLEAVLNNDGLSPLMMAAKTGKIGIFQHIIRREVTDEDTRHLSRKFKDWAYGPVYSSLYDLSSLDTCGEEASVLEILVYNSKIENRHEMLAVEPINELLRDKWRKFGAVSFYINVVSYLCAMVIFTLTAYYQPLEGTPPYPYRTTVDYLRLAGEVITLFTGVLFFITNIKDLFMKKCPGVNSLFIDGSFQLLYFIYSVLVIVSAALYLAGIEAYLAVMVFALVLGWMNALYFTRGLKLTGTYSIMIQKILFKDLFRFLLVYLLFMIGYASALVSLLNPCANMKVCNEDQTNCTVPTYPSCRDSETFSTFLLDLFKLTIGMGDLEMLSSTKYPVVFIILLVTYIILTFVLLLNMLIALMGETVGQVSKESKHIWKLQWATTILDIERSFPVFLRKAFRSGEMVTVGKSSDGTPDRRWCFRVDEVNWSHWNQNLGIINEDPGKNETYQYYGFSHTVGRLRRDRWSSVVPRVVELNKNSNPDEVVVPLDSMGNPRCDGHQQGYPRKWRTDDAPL
T5 sequence (Q8NER1 whole entry): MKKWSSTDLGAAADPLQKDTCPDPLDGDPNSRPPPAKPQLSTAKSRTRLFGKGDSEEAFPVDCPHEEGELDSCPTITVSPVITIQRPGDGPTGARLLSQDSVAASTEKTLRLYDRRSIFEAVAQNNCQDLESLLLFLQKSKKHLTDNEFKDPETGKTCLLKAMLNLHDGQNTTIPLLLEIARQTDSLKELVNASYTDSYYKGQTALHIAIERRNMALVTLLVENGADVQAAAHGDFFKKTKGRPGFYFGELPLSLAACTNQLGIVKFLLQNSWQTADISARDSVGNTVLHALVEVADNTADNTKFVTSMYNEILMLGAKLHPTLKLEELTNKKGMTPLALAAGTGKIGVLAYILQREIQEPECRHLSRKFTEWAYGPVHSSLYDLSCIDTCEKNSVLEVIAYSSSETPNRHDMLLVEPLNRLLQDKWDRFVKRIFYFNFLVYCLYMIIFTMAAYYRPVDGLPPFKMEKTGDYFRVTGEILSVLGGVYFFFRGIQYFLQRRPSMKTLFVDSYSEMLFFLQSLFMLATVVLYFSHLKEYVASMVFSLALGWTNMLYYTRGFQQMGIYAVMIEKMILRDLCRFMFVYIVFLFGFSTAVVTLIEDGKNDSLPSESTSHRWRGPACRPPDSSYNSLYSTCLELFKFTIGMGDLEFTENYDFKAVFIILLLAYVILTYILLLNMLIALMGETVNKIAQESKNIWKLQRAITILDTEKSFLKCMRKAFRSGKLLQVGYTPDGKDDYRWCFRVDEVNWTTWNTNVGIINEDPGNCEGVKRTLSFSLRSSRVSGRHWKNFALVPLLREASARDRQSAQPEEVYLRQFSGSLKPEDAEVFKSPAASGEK
capsaicin binding site, sequence (O35433 whole entry): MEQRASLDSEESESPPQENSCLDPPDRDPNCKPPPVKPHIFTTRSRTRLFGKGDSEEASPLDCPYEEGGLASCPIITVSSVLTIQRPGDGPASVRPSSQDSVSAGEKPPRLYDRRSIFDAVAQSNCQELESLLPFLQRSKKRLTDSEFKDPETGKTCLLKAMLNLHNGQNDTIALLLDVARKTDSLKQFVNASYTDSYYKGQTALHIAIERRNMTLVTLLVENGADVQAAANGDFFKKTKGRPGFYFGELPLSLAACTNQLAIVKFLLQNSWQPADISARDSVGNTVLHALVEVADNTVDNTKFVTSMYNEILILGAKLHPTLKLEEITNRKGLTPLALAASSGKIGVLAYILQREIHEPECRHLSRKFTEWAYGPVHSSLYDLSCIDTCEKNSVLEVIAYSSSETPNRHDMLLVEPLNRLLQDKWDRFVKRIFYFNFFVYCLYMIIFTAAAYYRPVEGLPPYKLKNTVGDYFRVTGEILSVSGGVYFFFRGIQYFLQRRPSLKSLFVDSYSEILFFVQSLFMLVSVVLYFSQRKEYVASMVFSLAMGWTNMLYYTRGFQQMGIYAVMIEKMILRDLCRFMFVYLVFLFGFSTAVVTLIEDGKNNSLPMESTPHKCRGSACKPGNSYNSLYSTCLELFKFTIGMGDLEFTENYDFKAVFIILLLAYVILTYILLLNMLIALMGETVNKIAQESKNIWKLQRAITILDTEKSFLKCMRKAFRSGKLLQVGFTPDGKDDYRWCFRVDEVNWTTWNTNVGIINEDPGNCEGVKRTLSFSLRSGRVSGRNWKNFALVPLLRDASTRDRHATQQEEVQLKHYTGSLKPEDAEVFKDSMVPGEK

SMILES: CCCCC/C=C\C/C=C\C/C=C\C/C=C\CCCC(=O)O [Arachadonic acid]
- Effect of stimulus on membrane conductance vs control oocytes (human VR3 A−B−; 10 uM): NE: n = 3

SMILES: COc1ccccc1O [Guiaicol]
- Effect of stimulus on membrane conductance vs control oocytes (human VR3 A+B−; [2]): NE: n = 3 (n = 1 0.4 ng)
- Effect of stimulus on membrane conductance vs control oocytes (human VR3 A+B+; 10 uM): NE: n = 3
- Effect of stimulus on membrane conductance vs control oocytes (human VR3 A−B−; 10 uM): NE: n = 3

SMILES: C=CCc1ccc(O)c(OC)c1 [Eugenol]
- Effect of stimulus on membrane conductance vs control oocytes (human VR3 A+B−; [2]): NE: n = 3 (n = 3 0.4 ng)
- Effect of stimulus on membrane conductance vs control oocytes (human VR3 A+B+; 10 uM): NE: n = 3
- Effect of stimulus on membrane conductance vs control oocytes (human VR3 A−B−; 10 uM): NE: n = 3

SMILES: CCCCC[C@H](O)CC(=O)CCc1ccc(O)c(OC)c1 [Gingerol]
- Effect of stimulus on membrane conductance vs control oocytes (human VR3 A+B−; [2]): NE: n = 3 (n = 1 0.4 ng)
- Effect of stimulus on membrane conductance vs control oocytes (human VR3 A+B+; 10 uM): NE: n = 3
- Effect of stimulus on membrane conductance vs control oocytes (human VR3 A−B−; 10 uM): NE: n = 3

SMILES: CCCCC/C=C\C/C=C\C/C=C\C/C=C\CCCC(=O)NCCO [Anandamide]
- Effect of stimulus on membrane conductance vs control oocytes (human VR3 A+B−; 1.15 uM, VR3 A+B− 0.4 ng injected): NE: n = 3 (0.4 ng
- Effect of stimulus on membrane conductance vs control oocytes (human VR3 A−B−; 1.15 uM): NE: n = 1

SMILES: CCCCCCCC/C=C\CCCCCCCC(=O)NCc1ccc(O)c(OC)c1 [Olvanil]
- Effect of stimulus on membrane conductance vs control oocytes (human VR3 A+B−; [2]): NE: n = 3 (n = 1 0.4 ng)
- Effect of stimulus on membrane conductance vs control oocytes (human VR3 A+B+; 10 uM): NE: n = 3
- Effect of stimulus on membrane conductance vs control oocytes (human VR3 A−B−; 10 uM): NE: n = 3

SMILES: NCCc1ccccc1 [β-phenylethylamine]
- Effect of stimulus on membrane conductance vs control oocytes (human VR3 A+B−; [3]): NE: n = 2

SMILES: N.N.N.N.N.N.N.N.N.N.N.N.N.N.[Cl-].[Cl-].[Cl-].[Cl-].[Cl-].[Cl-].[O-2].[O-2].[Ru+3].[Ru+3].[Ru+4] [ruthenium red]
- Block of the VR2 heat response (VR2; 10 μM ruthenium red): nearly completely blocked

SMILES: O=C(O)CCCO [γ-hydroxybutyrate]
- Effect of stimulus on membrane conductance vs control oocytes (human VR3 A+B−; [3]): NE: n = 2

SMILES: COc1cc(CNC(=O)CCCCC=CC(C)C)ccc1O [Capsaicin, 8-methyl-N-vanillyl-6-nonenamide]
- Effect of stimulus on membrane conductance vs control oocytes (human VR3 A+B−; [4]): NE: n = 3 (n = 3 0.4 ng)
- Effect of stimulus on membrane conductance vs control oocytes (human VR3 A+B+; 1 uM): NE: n = 3
- Response to capsaicin when VR1 is co-expressed with VR3 A+B−, compared with VR1 alone [1]: altered the responsiveness; also recorded: diminished
- Effect of stimulus on membrane conductance vs control oocytes (human VR3 A−B−; 1 uM): NE: n = 3

SMILES: C=C(C)[C@]12C[C@@H](C)[C@@]34O[C@](Cc5ccccc5)(O[C@@H]1[C@@H]3C=C(COC(=O)Cc1ccc(O)c(OC)c1)C[C@]1(O)C(=O)C(C)=C[C@@H]41)O2 [Resiniferatoxin, resiniferatoxin]
- Binding affinity at the capsaicin binding site (capsaicin binding site): nanomolar affinity
- Effect of stimulus on membrane conductance vs control oocytes (human VR3 A+B−; [4]): NE: n = 3 (n = 1 0.4 ng)
- Effect of stimulus on membrane conductance vs control oocytes (human VR3 A+B+; 1 uM): NE: n = 3
- Effect of stimulus on membrane conductance vs control oocytes (human VR3 A−B−; 1 uM): NE: n = 3

SMILES: Oc1cc2c(cc1O)CN(C(=S)NCCc1ccc(Cl)cc1)CCC2 [CPZ, capsazepine]
- Sensitivity of the VR2 heat response to CPZ (VR2): not sensitive
